Laboratory results reported in patent US20210094933A1, “RAPAFUCIN DERIVATIVE COMPOUNDS AND METHODS OF USE THEREOF” (The Johns Hopkins University, priority 2019, published 2021).

Tests used:
Assay type in all cases: cell-based
A549 = assay: Cell proliferation assay (Prolif.), IC50 relative to DMSO control; conditions: A549 cells; for Prolif, A549: IC50 class relative to DMSO control
Description: (§1) Cell Proliferation Assay (Prolif.) Guo et al. (2018) Nat. Chem. 11:254-63. Specific cell lines are indicated in each assay and cultured in complete growth media. Activity is scored according to the IC50 values relative to DMSO control. “Low” indicates an IC50 greater than 600 nM, “Medium” indicates an IC50 between 300 nM and 600 nM “High” indicates an IC50 less than 300 nM. “Rel.Uptake” refers to uptake activity characterization relative to a single concentration assay. “Low” indicates a response greater than 0.6 times the activity relative to DMSO, “Medium” indicates a response between 0.6 and 0.3 times the activity relative to DMSO, “High” indicates a response less than 0.3 times the activity relative to DMSO.

[1] = Cell proliferation assay, single concentration, response relative to DMSO; cell line indicated in each table; conditions: A549 cells
Description: as §1

[2] = Nucleoside uptake assay, single concentration (Rel.Uptake), response relative to DMSO; cell line indicated in each table; conditions: 293 T cells, nucleoside uptake at single concentration
Description: Nucleoside Uptake Assay (uptake). Nuceloside uptake assays were performed with using 3H-Thymidine as described in Guo et al. (2018) Nat. Chem, 11:254-63. Specific cell lines are indicated in each assay and cultured in complete growth media. Activity is scored according to the IC50 values relative to DMSO control. “Low” indicates an IC50 greater than 600 nM, “Medium” indicates an IC50 between 300 nM and 600 nM “High” indicates an IC50 less than 300 nM. “Rel.Uptake” refers to uptake activity characterization relative to a single concentration assay. “Low” indicates a response greater than 0.6 times the activity relative to DMSO, “Medium” indicates a response between 0.6 and 0.3 times the activity relative to DMSO, “High” indicates a response less than 0.3 times the activity relative to DMSO.

IC50 (A549; Homo sapiens) [nM] | Compound | Prolif, A549 (A549) | Rel. Prolif., A549 [1] | Rel. Uptake, 293 T [2]
– | CCCC[C@H]1C(=O)N[C@@H](Cc2ccc3ccccc3c2)C(=O)N(C)[C@@H](COC(C)(C)C)C(=O)NCC(=O)N(C)CCC=CC(=O)OCC(C)(C)C(=O)C(=O)N2CCCC[C@H]2C(=O)O[C@H](CCc2cc(OC)c(OC)c(OC)c2)c2cccc(c2)OCC(=O)N1C [Compound 560] | medium | medium | –
– | CCCC[C@H]1C(=O)C[C@@H](Cc2ccc3ccccc3c2)C(=O)N(C)[C@@H](COC(C)(C)C)C(=O)NCC(=O)N(C)CCC=CC(=O)OCC(C)(C)C(=O)C(=O)N2CCCC[C@H]2C(=O)O[C@H](CCc2ccc(OC)c(OC)c2OC)c2cccc(c2)OCC(=O)N1C [Compound 561] | medium | medium | –
– | CCCC[C@H]1C(=O)N[C@@H](Cc2ccc3ccccc3c2)C(=O)N(C)[C@@H](COC(C)(C)C)C(=O)NCC(=O)N(C)CCC=CC(=O)OCC(C)(C)C(=O)C(=O)N2CCCC[C@H]2C(=O)O[C@H](CCc2cc(OC)c(OC)cc2OC)c2cccc(c2)OCC(=O)N1C [Compound 562] | medium | medium | –
– | CCCC[C@H]1C(=O)N[C@@H](Cc2ccc3ccccc3c2)C(=O)N(C)[C@@H](COC(C)(C)C)C(=O)NCC(=O)N(C)CCC=CC(=O)OCC(C)(C)C(=O)C(=O)N2CCCC[C@H]2C(=O)O[C@H](CCc2cc(OC)cc(OC)c2OC)c2cccc(c2)OCC(=O)N1C [Compound 563] | low | low | –
– | CCCC[C@H]1C(=O)N[C@@H](Cc2ccc3ccccc3c2)C(=O)N(C)[C@@H](COC(C)(C)C)C(=O)NCC(=O)N(C)CCC=CC(=O)OCC(C)(C)C(=O)C(=O)N2CCCC[C@H]2C(=O)O[C@H](CCc2c(OC)ccc(OC)c2OC)c2cccc(c2)OCC(=O)N1C [Compound 564] | low | low | –
– | CCCC[C@H]1C(=O)N[C@@H](Cc2ccc3ccccc3c2)C(=O)N(C)[C@@H](COC(C)(C)C)C(=O)NCC(=O)N(C)CCC=CC(=O)OCC(C)(C)C(=O)C(=O)N2CCCC[C@H]2C(=O)O[C@H](CCc2ccc(OC)c(OC)c2O)c2cccc(c2)OCC(=O)N1C [Compound 565] | medium | medium | –
– | CCCC[C@H]1C(=O)N[C@@H](Cc2ccc3ccccc3c2)C(=O)N(C)[C@@H](COC(C)(C)C)C(=O)NCC(=O)N(C)CCC=CC(=O)OCC(C)(C)C(=O)C(=O)N2CCCC[C@H]2C(=O)O[C@H](CCc2cc(O)c(OC)c(OC)c2)c2cccc(c2)OCC(=O)N1C [Compound 566] | medium | medium | –
– | CCCC[C@H]1C(=O)N[C@@H](Cc2ccc3ccccc3c2)C(=O)N(C)[C@@H](COC(C)(C)C)C(=O)NCC(=O)N(C)CCC=CC(=O)OCC(C)(C)C(=O)C(=O)N2CCCC[C@H]2C(=O)O[C@H](CCc2cc(OC)c(OC)cc2O)c2cccc(c2)OCC(=O)N1C [Compound 567] | medium | medium | –
– | CCCC[C@H]1C(=O)N[C@@H](Cc2ccc3ccccc3c2)C(=O)N(C)[C@@H](COC(C)(C)C)C(=O)NCC(=O)N(C)CCC=CC(=O)OCC(C)(C)C(=O)C(=O)N2CCCC[C@H]2C(=O)O[C@H](CCc2cc(F)c(OC)c(OC)c2)c2cccc(c2)OCC(=O)N1C [Compound 568] | medium | medium | –
– | CCCC[C@H]1C(=O)N[C@@H](Cc2ccc3ccccc3c2)C(=O)N(C)[C@@H](COC(C)(C)C)C(=O)NCC(=O)N(C)CCC=CC(=O)OCC(C)(C)C(=O)C(=O)N2CCCC[C@H]2C(=O)O[C@H](CCc2cc(OC)c(OC)cc2F)c2cccc(c2)OCC(=O)N1C [Compound 569] | medium | medium | –
– | CCCC[C@H]1C(=O)N[C@@H](Cc2ccc3ccccc3c2)C(=O)N(C)[C@@H](COC(C)(C)C)C(=O)NCC(=O)N(C)CCC=CC(=O)OCC(C)(C)C(=O)C(=O)N2CCCC[C@H]2C(=O)O[C@H](CCc2ccc(OC)c(OC)c2F)c2cccc(c2)OCC(=O)N1C [Compound 570] | medium | medium | –
– | CCCC[C@H]1C(=O)N[C@@H](Cc2ccc3ccccc3c2)C(=O)N(C)[C@@H](COC(C)(C)C)C(=O)NCC(=O)N(C)CCC=CC(=O)OCC(C)(C)C(=O)C(=O)N2CCN(C(=O)OCC3c4ccccc4-c4ccccc43)C[C@H]2C(=O)O[C@H](CCc2ccc(OC)c(OC)c2)c2cccc(c2)OCC(=O)N1C [Compound 571] | low | low | –
– | CCCC[C@H]1C(=O)N[C@@H](Cc2ccc3ccccc3c2)C(=O)N(C)[C@@H](COC(C)(C)C)C(=O)NCC(=O)N(C)CCC=CC(=O)OCC(C)(C)C(=O)C(=O)N2CCN(C)C[C@H]2C(=O)O[C@H](CCc2ccc(OC)c(OC)c2)c2cccc(c2)OCC(=O)N1C [Compound 572] | medium | medium | –
– | CCCC[C@H]1C(=O)N[C@@H](Cc2ccc3ccccc3c2)C(=O)N(C)[C@@H](COC(C)(C)C)C(=O)NCC(=O)N(C)CCC=CC(=O)OCC(C)(C)C(=O)C(=O)N2CCCC[C@H]2C(=O)O[C@H](CCc2ccc(OC)c(OC)c2)c2cc(ccc2F)OCC(=O)N1C [Compound 573] | low | low | –
– | CCCC[C@H]1C(=O)N[C@@H](Cc2ccc3ccccc3c2)C(=O)N(C)[C@@H](COC(C)(C)C)C(=O)NCC(=O)N(C)CCC=CC(=O)OCC(C)(C)C(=O)C(=O)N2CCCC[C@H]2C(=O)O[C@H](CCc2ccc(OC)c(OC)c2)c2cc(F)cc(c2)OCC(=O)N1C [Compound 574] | low | low | –
– | CCCC[C@H]1C(=O)N[C@@H](Cc2ccc3ccccc3c2)C(=O)N(C)[C@@H](COC(C)(C)C)C(=O)NCC(=O)N(C)CCC=CC(=O)OCC(C)(C)C(=O)C(=O)N2CCCC[C@H]2C(=O)O[C@H](CCc2ccc(OC)c(OC)c2)c2ccc(F)c(c2)OCC(=O)N1C [Compound 576] | medium | medium | –
– | CCCC[C@H]1C(=O)N[C@@H](Cc2ccc3ccccc3c2)C(=O)N(C)[C@@H](COC(C)(C)C)C(=O)NCC(=O)N(C)CCC=CC(=O)OCC(C)(C)C(=O)C(=O)N2CCCC[C@H]2C(=O)O[C@H](CCc2ccc(OC)c(OC)c2)c2cccc(c2F)OCC(=O)N1C [Compound 1563] | high | – | high
– | CCCC[C@H]1C(=O)N[C@@H](Cc2ccc3ccccc3c2)C(=O)N(C)[C@@H](COC(C)(C)C)C(=O)NCC(=O)N(C)CCC=CC(=O)OCC(C)(C)C(=O)C(=O)N2CCCC[C@H]2C(=O)O[C@H](CCc2ccc(OC)c(O)c2)c2cccc(c2)OCC(=O)N1C [Compound 1564] | high | – | high
– | CCCC[C@H]1C(=O)N[C@@H](Cc2ccc3ccccc3c2)C(=O)N(C)[C@@H](COC(C)(C)C)C(=O)NCC(=O)N(C)CCC=CC(=O)OCC(C)(C)C(=O)C(=O)N2CCCC[C@H]2C(=O)O[C@H](CCc2ccc(OC)c(OC)c2)c2cncc(c2)OCC(=O)N1C [Compound 1565] | low | – | low
< 300 | C=C1NCC(=O)N(C)CC/C=C\C(=O)OCC(C)(C)C(=O)C(=O)N2CCCC[C@H]2C(=O)O[C@H](CCc2ccc(OC)c(OC)c2)c2cccc(c2)NC(=O)CCC(=O)N(C)[C@@H](CC(C)C)C(=O)N[C@H](Cc2ccccc2)C(=O)N(C)[C@H]1[C@@H](C)CC [Compound 1592] | – | – | Low (“Low” indicates a response greater than 0.6 times the activity relative to DMSO)
